Entries after “also recorded” stand apart in the source; their conditions may differ.
Key:
[1] = system: uremic rat model of CKD featuring vascular calcification; experiment: Rat model of uremia-associated vascular calcification (5/6th nephrectomy, calcitriol, 0.9% P diet); type: in vivo
Text: Chronic kidney disease (CKD) has multiple pathogenic mechanisms, and advanced CKD is often characterized by disordered mineral metabolism (e.g., hyperphosphatemia, hypercalcemia) and vascular calcification.

[2] = system: adenine-induced uremic rat model; experiment: Adenine-induced uremic rat model; type: in vivo
Method: The effects of Cpd 002(were tested in an adenine-induced uremic rat model. Rats were fed a diet including 0.75% adenine and 1.2% phosphorus during the nephritis induction phase. The basal diet during the treatment phase was normal chow including 0.3% adenine and 0.6% phosphorus for 2 weeks. The rats were pair-fed the first 5 days (groups 1 and 2 to group 3, 4 days apart), and fed ad libitum afterwards. The treatment groups were as follows: vehicle, n=10; Cpd 002, 2 mg/kg/day drug-in-chow, n=10; and Cpd 002, 5 mg/kg/day drug-in-chow, n=12. Weekly measurements were taken for serum markers and kidney function.

[3] = system: dietary salt-induced, partial renal ablation model of CKD; experiment: Renal insufficiency with high salt feed in nephrectomized rats; type: in vivo, rat
Method: The effects of Cpd 002 were tested in a dietary salt-induced, partial renal ablation model of CKD.

rats = experiment: Urinary excretion of phosphate and calcium in rats; type: in vivo, rat; settings: 16 hours overnight urine
Method: The activity of compound 002 was tested for its effects on phosphorus and calcium levels in the urine of rats. Rats were dosed according to the schedule in Table E7.
The rats were kept for 16 hours overnight (in the dark, the typical feeding period) in individual metabolic cages, and urine was collected the following morning for analysis of phosphate and calcium levels. The study design is shown WO2014169094.

[4] = In vitro dissolution of CPD002 formulations; type: physicochemical; settings: CPD002 formulations at high pH
[5] = haemodialysis patients; cited from earlier work
Sprague Dawley (SD) rats = experiment: Combination treatment with tenapanor and sevelamer in rats (urinary and renal phosphorous and sodium, BLISS model)
Method: A total of 48, approximately 8-week-old male Sprague Dawley (SD) rats (Envigo, Livermore, Calif.), weighing approximately 250 g on arrival, were housed 2-per cage in micro-isolator cages for a 48-hr acclimation period prior to being assigned to study groups. Animals were housed in a temperature (65-75° F.) and humidity (35-55%) controlled facility utilizing a reversed 12-hour light/dark cycle (7 AM-7 PM dark cycle). […] Body weights were recorded at study initiation and daily for the remainder of the study. Animals were maintained in accordance with the Guide for the Care and Use of Laboratory Animals (National Research Council, 2011). The study was conducted under a protocol approved by the Institutional Animal Care and Use Committee.
Rats were randomly assigned to one of eight groups (n=6/group) provided with a diet containing varying amounts of sevelamer (0-3% w/w) and were dosed by oral gavage twice daily with vehicle (0.01% Tween80) or tenapanor (0.15 mg/kg) for 11-consecutive days according to the study assignments shown in the following table.
Rats dosed orally with vehicle and provided diet without sevelamer (Group 1) served as the control group. Treatment arms included groups treated with tenapanor alone (0.15 mg/kg, bid), sevelamer alone (0.75, 1,5 or 3% w/w in chow) and the combination of tenapanor (0.15 mg/kg, bid) with each dose level of sevelamer (0.75, 1,5 or 3% w/w in chow). Animals were dosed in their home cages while pair-housed for the first five treatment days. On treatment day 6, all animals were housed individually in metabolic cages for the remainder of the study and continued to be provided ad libitum access to diet containing 0-3% sevelamer w/w and dosed twice daily with vehicle or tenapanor. Following two days acclimation to the metabolic cages, 24-hour food intake, water intake and urinary volume were measured and recorded for the final four treatment days. Urinary sodium and phosphorous concentration was measured by ion chromatography (IC). 24-hour urinary sodium and phosphorous excretion were calculated by multiplying ion concentration by 24-hour urine volume. Urinary ion excretion was also normalized to daily dietary ion intake to account for daily fluctuations in food intake.
Dosing solutions containing tenapanor (Ardelyx, Fremont Calif.) at a concentration of 0.03 mg/mL were made fresh weekly by adding the appropriate weight of tenapanor to 0.1% Tween 80 vehicle. The dose volume was 5 mL/kg for all groups.
Animals were dosed twice daily (bid) orally (po), immediately prior to lights out (7 AM) and during the middle of dark cycle (2 PM) with a standard gavage needle (38 mm, 20 G). Animals were removed from the holding or metabolic cages for dosing and then immediately returned to the cage of origin.
Urine samples were analyzed for sodium and phosphorous content on an ion chromatography system (Thermo Fisher Scientific ICS-3000 or ICS-5000+) coupled with conductivity detectors.

[6] = Cpd 002 0.065 mg/g chow vs vehicle diet, listed as Cpd 002
[7] = endpoint day 27, Cpd 002 0.065 mg/g chow vs vehicle diet
[8] = endpoint, Cpd 002 0.065 mg/g chow vs vehicle diet
[9] = early time points, Cpd 002 2 or 5 mg/kg/day drug-in-chow
[10] = week three, at the highest dose
[11] = tenapanor 0.15 mg/kg po bid alone, four day collection period, relative to control group 1

CN1Cc2c(Cl)cc(Cl)cc2[C@H](c2cccc(S(=O)(=O)NCCOCCOCCNC(=O)NCCCCNC(=O)NCCOCCOCCNS(=O)(=O)c3cccc([C@@H]4CN(C)Cc5c(Cl)cc(Cl)cc54)c3)c2)C1 [Tenapanor, tenapanor]
hypertrophy of the heart (endpoint heart weight) [1, 6]: lessened; also recorded: reduce
hypertrophy of the kidney remnant (endpoint kidney remnant weight) [1, 6]: lessened; also recorded: reduce
plasma FGF-23 [1, 7]: reduced
plasma creatinine [1, 7]: reduced
plasma phosphorus ([1]; endpoint day 27, Cpd 002 0.065 mg/g chow vs vehicle diet, listed as Cpd 002): reduced; also recorded: anti-hyperphosphatemic effects
calcium in the stomach (soft tissue calcification) [1, 8]: reduced
phosphorus in the stomach (soft tissue calcification) [1, 8]: reduced
plasma aldosterone levels [1, 8]: increase
vascular calcification as measured by aortic mineral content ([1]; endpoint, Cpd 002 0.065 mg/g chow vs vehicle diet, listed as Cpd 002): reduce
moribundity ([1]; treatment group vs vehicle): decreased
mortality outcome ([1]; treatment group vs vehicle): trend toward improved mortality outcome
serum creatinine [2, 9]: reduced
serum phosphorus [2, 9]: reduced
heart remodeling (organ weight) ([2]; week three): trend towards lesser
kidney remodeling (organ weight) ([2]; week three): trend towards lesser
heart calcification [2, 10]: trend towards reduced
kidney calcification [2, 10]: trend towards reduced
albuminuria [3]: improved
blood pressure [3]: improved
fluid overload [3]: improved
heart hypertrophy [3]: improved
kidney hypertrophy [3]: improved
phosphorus urinary excretion [3]: significantly reduced
urine phosphorus mass relative to the vehicle-only control (rats; Cpd 002 0.1-3.0 mg/kg): reduced
urine phosphorus mass relative to 48 mg/kg Renvela (rats; increasing dosages of Cpd 002): significantly reduced
in vitro dissolution profile [4]: slower and/or incomplete dissolution
serum phosphate levels [5]: significantly lower
urinary sodium excretion (Sprague Dawley (SD) rats; single agent, compared to vehicle control): significantly decreased
24-hr urinary phosphorous excretion (Sprague Dawley (SD) rats; single agent, compared to vehicle control, final four days of treatment): significantly decreased
% Reduction Urinary Phosphorous Excretion When Dosed Alone (Sprague Dawley (SD) rats; [11]): 33.2%
% Reduction Urinary Sodium Excretion When Dosed Alone (Sprague Dawley (SD) rats; [11]): 82.1%
urinary sodium excretion (Sprague Dawley (SD) rats; tenapanor co-administered with all doses of sevelamer, compared to control): significantly reduced
